Test results: US6075060A, “Trans olefinic diols with surfactant properties” (Air Products and Chemicals, Inc., priority 1998, dated 2000)
Values after ≈ are worked out from the molar mass of the structure shown.

Columns and labels:
[1] = Water solubility (solubility limit); type: physicochemical; details: for solubility: water
[2] = Equilibrium surface tension by maximum-bubble-pressure method; type: physicochemical; details: for EST of 0.1 wt % solution: cis and trans isomers, Table 7; for EST, trans olefin: 0.05 wt. %, Table 4; for Equilibrium Surface Tension: 0.1 wt %, 23° C., 1 bubble/second, Table 2; for EST at Solubility Limit: trans isomers, Table 8
Procedure: The equilibrium surface tension is measured using the maximum-bubble-pressure method at 23° C. and 1 bubble/second. This method is described in Langmuir, Vol. 2 (1986), pp. 428-432. When measured at the solubility limit of the surfactant, an equilibrium surface tension of 40 dynes/cm or less is desired; preferably 35 dynes/cm or less.
The equilibrium surface tension was measured using the maximum-bubble-pressure method at 23° C. and 1 bubble/second at 0.1 wt %. The results, presented in Table 2, indicate that olefinic diols with 10 or less carbons are poor surfactants and the cis isomer has slightly better equilibrium surface tension than the trans isomer.
The equilibrium surface tension of the compounds of Examples 3, 4 and 5 was measured 0.05 wt. %.

Row | solubility ([1]; cis and trans isomers, Table 7) | EST of 0.1 wt % solution [2] | SMILES | also measured
1 | 100 µg/mL (≈ 499 µM) | 54 dynes/cm | CCC(O)(/C=C\C(O)(CC)CC)CC [Example 6 cis, 3,6-diethyl-4-octene-3,6-diol] | 
2 | 5000 µg/mL (≈ 25000 µM) | 50 dynes/cm | CCC(O)(/C=C/C(O)(CC)CC)CC [Example 6 trans, 3,6-diethyl-4-octene-3,6-diol] | 

The next lines start with the molecule.

Row | SMILES | solubility ([1]; cis and trans isomers, Table 7) | EST of 0.1 wt % solution [2] | also measured
3 | CC(C)CC(C)(O)/C=C\C(C)(O)CC(C)C (stereo not drawn) [Example 7 cis, 2,4,7,9-tetramethyl-5-decene-4,7-diol] | < 100 µg/mL | 58 dynes/cm | 
4 | CCCCC(O)(/C=C/C(O)(CCCC)CCCC)CCCC [Example 5] |  |  | EST, trans olefin [2]: 69 DYNES/CM
5 | CCC(C)(O)/C=C\C(C)(O)CC (stereo not drawn) [Example 2 cis] |  |  | Equilibrium Surface Tension [2]: 51 dynes/cm
6 | CCCCC(C)(O)/C=C/C(C)(O)CCCC (centres unmarked) [Example 9, 5,8-dimethyl-6-dodecene-5,8-diol] |  |  | solubility ([1]; trans isomers, Table 8): 1000 µg/mL (≈ 4380 µM); EST at Solubility Limit [2]: 33 dynes/cm
7 | CCC(C)(O)/C=C/C(C)(O)CC (stereo not drawn) [Example 2 trans] |  |  | Equilibrium Surface Tension [2]: 59 dynes/cm
8 | CC(O)(/C=C/C(C)(O)c1ccccc1)c1ccccc1 (centres unmarked) [Example 4] |  |  | EST, trans olefin [2]: 67 DYNES/CM
9 | CC(C)CC(C)(O)/C=C/C(C)(O)CC(C)C (stereo not drawn) [Example 7 trans, 2,4,7,9-tetramethyl-5-decene-4,7-diol] | 2000 µg/mL (≈ 8760 µM) | 34 dynes/cm | Solubility Limit ([1]; trans isomers, Table 8): 0.2 wt % in water; EST at Solubility Limit [2]: 29 dynes/cm
10 | CCCCCCC(C)(O)/C=C/C(C)(O)CCCCCC (centres unmarked) [Example 3] |  |  | EST, trans olefin [2]: 67 DYNES/CM
11 | CC(C)CCC(C)(O)/C=C\C(C)(O)CCC(C)C (stereo not drawn) [Example 8 cis, 2,5,8,11-tetramethyl-6-dodecene-5,8-diol] | < 100 µg/mL | 68 dynes/cm | 
12 | CC(C)CCC(C)(O)/C=C/C(C)(O)CCC(C)C (stereo not drawn) [Example 8 trans, 2,5,8,11-tetramethyl-6-dodecene-5,8-diol] | 300 µg/mL (≈ 1170 µM) | 33 dynes/cm | Solubility Limit ([1]; trans isomers, Table 8): 0.03 wt % in water; EST at Solubility Limit [2]: 33 dynes/cm
